According to patent US20070128217A1 (priority 2003, published 2007):

Assays:
[1] = tested on: antibodies in sera from SARS patients (sera 1a, 1b, 2, 6, 37, 62, London, SARS-yellow, SARS-green); type: binding, human; design: Binding of serum 6 to linear peptides of protein X1 of SARS-CoV Urbani / Binding of serum 37 to linear peptides of protein X1 of SARS-CoV Urbani / Binding of serum 6 to looped/cyclic peptide (PEPSCAN-ELISA) / Binding of serum 37 to looped/cyclic peptide (PEPSCAN-ELISA) / Binding of serum 37 to looped/cyclic peptides of protein X1 of SARS-CoV Urbani / Binding of serum 6 to linear peptides of protein X2 / Binding of serum 37 to linear peptides of protein X2 / Binding of serum 37 to looped/cyclic peptides of protein X2 of SARS-CoV Urbani / Binding of serum 6 to linear peptides of protein M of SARS-CoV Urbani / Binding of serum 37 to linear peptides of protein M of SARS-CoV Urbani / Binding of serum 6 to looped/cyclic peptides of protein M of SARS-CoV Urbani / Binding of serum 37 to looped/cyclic peptides of protein M of SARS-CoV Urbani / Binding of serum 6 to linear peptides of protein X3 of SARS-CoV Urbani / Binding of serum 37 to linear peptides of protein X3 of SARS-CoV Urbani / Binding of serum 37 to looped/cyclic peptides of protein X3 of SARS-CoV Urbani / Binding of serum 6 to linear peptides of protein X4 of SARS-CoV Urbani / Binding of serum 37 to linear peptides of protein X4 of SARS-CoV Urbani / Binding of serum 37 to looped/cyclic peptides of protein X4 of SARS-CoV Urbani / Binding of serum 6 to linear peptides of protein X5 of SARS-CoV Urbani / Binding of serum 37 to linear peptides of protein X5 of SARS-CoV Urbani / Binding of serum 37 to looped/cyclic peptides of protein X5 of SARS-CoV Urbani / Binding of serum 6 to linear peptides of protein N of SARS-CoV Urbani / Binding of serum 37 to linear peptides of protein N of SARS-CoV Urbani / Binding of serum 6 to linear peptide (PEPSCAN-ELISA) / Binding of serum 1a to looped/cyclic peptides of protein N of SARS-CoV Urbani / Binding of serum 1b to looped/cyclic peptides of protein N of SARS-CoV Urbani / Binding of serum 2 to looped/cyclic peptides of protein N of SARS-CoV Urbani / Binding of serum 6 to looped/cyclic peptides of protein N of SARS-CoV Urbani / Binding of serum 37 to looped/cyclic peptides of protein N of SARS-CoV Urbani / Binding of serum 62 to looped/cyclic peptides of protein N of SARS-CoV Urbani / Binding of serum London to looped/cyclic peptides of protein N of SARS-CoV Urbani / Binding of serum SARS-green to looped/cyclic peptides of protein N of SARS-CoV Urbani: unit not given here
[2] = tested on: rabbit serum obtained by immunizing a rabbit with the SARS-CoV strain Frankfurt 1; type: binding; design: Binding of a rabbit serum to linear peptides / Binding of a rabbit serum to looped peptides / Rabbit serum linear peptides / Rabbit serum looped peptides / Binding of a rabbit serum to linear peptides of protein N of SARS-CoV Urbani (Rabbit serum linear peptides) / Binding of a rabbit serum to looped/cyclic peptides of protein N of SARS-CoV Urbani (Rabbit serum looped peptides): unit not given here
[3] = tested on: control sera (pooled serum of ten healthy LUMC hospital workers; commercial negative donor pooled serum from the Dutch bloodbank); type: binding, human; design: Binding of Control serum LUMC to linear peptides / Binding of Control serum Blood-bank to linear peptides / Binding of Control serum LUMC to looped peptides / Binding of Control Serum Blood-Bank to Looped peptides / Binding of Control serum LUMC to linear peptides of the protein M of SARS-CoV Urbani / Binding of Control serum Blood-bank to linear peptides of the protein M of SARS-CoV Urbani / Binding of Control serum LUMC to looped peptides of the protein M of SARS-CoV Urbani / Binding of Control Serum Blood-Bank to Looped peptides of the protein M of SARS-CoV Urbani: unit not given here

WPVTLACFVLAAVYR
Binding of serum 1a to linear peptides of protein M of SARS-CoV Urbani [1]: 0.7
Binding of serum 1a to looped/cyclic peptides of protein M of SARS-CoV Urbani [1]: 0.8
Binding of serum 1b to linear peptides of protein M of SARS-CoV Urbani [1]: 0.5
Binding of serum 1b to looped/cyclic peptides of protein M of SARS-CoV Urbani [1]: 0.6
Binding of serum 2 to linear peptides of protein M of SARS-CoV Urbani [1]: 0.4
Binding of serum 2 to looped/cyclic peptides of protein M of SARS-CoV Urbani [1]: 0.8
Binding of serum 6 to linear peptides of protein M of SARS-CoV Urbani [1]: 0.3
Binding of serum 6 to looped/cyclic peptides of protein M of SARS-CoV Urbani [1]: 1.1
Binding of serum 37 to linear peptides of protein M of SARS-CoV Urbani [1]: 0.4
Binding of serum 37 to looped/cyclic peptides of protein M of SARS-CoV Urbani [1]: 0.8
Binding of serum 62 to linear peptides of protein M of SARS-CoV Urbani [1]: 0.4
Binding of serum 62 to looped/cyclic peptides of protein M of SARS-CoV Urbani [1]: 1.1
Binding of serum London to linear peptides of protein M of SARS-CoV Urbani [1]: 0.3
Binding of serum London to looped/cyclic peptides of protein M of SARS-CoV Urbani [1]: 0.4
Binding of serum SARS-green to linear peptides of protein M of SARS-CoV Urbani [1]: 0.4
Binding of serum SARS-green to looped/cyclic peptides of protein M of SARS-CoV Urbani [1]: 0.2
Binding of serum SARS-yellow to linear peptides of protein M of SARS-CoV Urbani [1]: 0.2
Binding of serum SARS-yellow to looped/cyclic peptides of protein M of SARS-CoV Urbani [1]: 0.4
Rabbit serum linear peptides [2]: 0.2
Rabbit serum looped peptides [2]: 0.4
Binding of Control Serum Blood-Bank to Looped peptides of the protein M of SARS-CoV Urbani [3]: 0.8
Binding of Control serum Blood-bank to linear peptides of the protein M of SARS-CoV Urbani [3]: 0.7
Binding of Control serum LUMC to linear peptides of the protein M of SARS-CoV Urbani [3]: 0.5
Binding of Control serum LUMC to looped peptides of the protein M of SARS-CoV Urbani [3]: 1.2

YFVASFRLFARTRSM
Binding of serum 1a to linear peptides of protein M of SARS-CoV Urbani [1]: 0.6
Binding of serum 1b to linear peptides of protein M of SARS-CoV Urbani [1]: 0.4
Binding of serum 2 to linear peptides of protein M of SARS-CoV Urbani [1]: 0.4
Binding of serum 6 to linear peptides of protein M of SARS-CoV Urbani [1]: 0.4
Binding of serum 37 to linear peptides of protein M of SARS-CoV Urbani [1]: 0.4
Binding of serum 62 to linear peptides of protein M of SARS-CoV Urbani [1]: 0.6
Binding of serum London to linear peptides of protein M of SARS-CoV Urbani [1]: 0.3
Binding of serum SARS-green to linear peptides of protein M of SARS-CoV Urbani [1]: 0.3
Binding of serum SARS-yellow to linear peptides of protein M of SARS-CoV Urbani [1]: 0.1
Recognition of the peptide by sera of SARS-CoV infected individuals, and form (linear, looped/cyclic) in which it is recognized [1]: recognized in looped/cyclic form
Rabbit serum linear peptides [2]: 0.6
Rabbit serum looped peptides [2]: 0.8
Binding of Control Serum Blood-Bank to Looped peptides of the protein M of SARS-CoV Urbani [3]: 0.9
Binding of Control serum Blood-bank to linear peptides of the protein M of SARS-CoV Urbani [3]: 0.6
Binding of Control serum LUMC to linear peptides of the protein M of SARS-CoV Urbani [3]: 0.3
Binding of Control serum LUMC to looped peptides of the protein M of SARS-CoV Urbani [3]: 0.7

YHITVSQIQLSLLKV
Binding of serum 1a to linear peptides of protein X2 [1]: 0.6
Binding of serum 1a to looped/cyclic peptides of protein X2 of SARS-CoV Urbani [1]: 0.4
Binding of serum 1b to linear peptides of protein X2 [1]: 0.5
Binding of serum 1b to looped/cyclic peptides of protein X2 of SARS-CoV Urbani [1]: 0.4
Binding of serum 2 to linear peptides of protein X2 [1]: 0.5
Binding of serum 2 to looped/cyclic peptides of protein X2 of SARS-CoV Urbani [1]: 0.4
Binding of serum 6 to linear peptides of protein X2 [1]: 0.5
Binding of serum 6 to looped/cyclic peptides of protein X2 of SARS-CoV Urbani [1]: 0.1
Binding of serum 37 to linear peptides of protein X2 [1]: 0.7
Binding of serum 37 to looped/cyclic peptides of protein X2 of SARS-CoV Urbani [1]: 0.4
Binding of serum 62 to linear peptides of protein X2 [1]: 0.5
Binding of serum 62 to looped/cyclic peptides of protein X2 of SARS-CoV Urbani [1]: 0.5
Binding of serum London to linear peptides of protein X2 [1]: 0.4
Binding of serum London to looped/cyclic peptides of protein X2 of SARS-CoV Urbani [1]: 0.2
Binding of serum SARS-green to linear peptides of protein X2 [1]: 0.1
Binding of serum SARS-green to looped/cyclic peptides of protein X2 of SARS-CoV Urbani [1]: 0.3
Binding of serum SARS-yellow to linear peptides of protein X2 [1]: 0.6
Binding of serum SARS-yellow to looped/cyclic peptides of protein X2 of SARS-CoV Urbani [1]: 0.4
Binding of a rabbit serum to linear peptides [2]: 0.8
Binding of a rabbit serum to looped peptides [2]: 0.3
Binding of Control Serum Blood-Bank to Looped peptides [3]: 0.3
Binding of Control serum Blood-bank to linear peptides [3]: 0.6
Binding of Control serum LUMC to linear peptides [3]: 0.7
Binding of Control serum LUMC to looped peptides [3]: 0.4
